Measured values from the supplement of paper PMC10307832.

Legend:
Test in all cases: relative viability (nuclei count vs DMSO), 5 days (fraction); higher = more cells survive
[1] = compound: CCn1c(-c2nonc2N)nc2cnc(Oc3cccc(NC(=O)c4ccc(OCCN5CCOCC5)cc4)c3)cc21 + CCNC(=O)c1noc(-c2cc(C(C)C)c(O)cc2O)c1-c1ccc(CN2CCOCC2)cc1 [Luminespib] (partner 0.01 µM)
Outline: (§1)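 Five library-drug doses in √10 steps were combined with a fixed anchor-drug dose, or a single drug was given alone, by pin tool to lung cancer cell lines in 1536-well plates the day after seeding. Nuclei were stained and counted after 5 days. Relative viability is the nuclei count in treated wells over that in vehicle wells, taken as the median of duplicate plates.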

[2] = compound: N=C1NC(=O)/C(=C/c2ccc(O)cc2)S1 [Mirin] + CCNC(=O)c1noc(-c2cc(C(C)C)c(O)cc2O)c1-c1ccc(CN2CCOCC2)cc1 [Luminespib] (partner 0.01 µM)
Outline: as §1

[3] = compound: N=C1NC(=O)/C(=C/c2ccc(O)cc2)S1 [Mirin] + N=C(N)NC(=N)NCCc1ccccc1 [Phenformin] (partner 250 µM)
Outline: as §1

[4] = compound: N=C1NC(=O)/C(=C/c2ccc(O)cc2)S1 [Mirin] + C[C@@H](Oc1cc(-c2cnn(C3CCNCC3)c2)cnc1N)c1c(Cl)ccc(F)c1Cl [Crizotinib] (partner 1 µM)
Outline: as §1

Row | Cell Line | relative viability ([1]; first compound 0.04 µM) | relative viability ([1]; first compound 0.1265 µM) | relative viability ([1]; first compound 0.4 µM) | relative viability ([1]; first compound 1.265 µM) | relative viability ([1]; first compound 4 µM) | relative viability ([2]; first compound 0.25 µM) | relative viability ([2]; first compound 0.7906 µM) | relative viability ([2]; first compound 2.5 µM) | relative viability ([2]; first compound 7.906 µM) | relative viability ([2]; first compound 25 µM) | relative viability ([3]; first compound 0.25 µM) | relative viability ([3]; first compound 0.7906 µM) | relative viability ([3]; first compound 2.5 µM) | relative viability ([3]; first compound 7.906 µM) | relative viability ([3]; first compound 25 µM) | relative viability ([4]; first compound 0.25 µM) | relative viability ([4]; first compound 2.5 µM) | relative viability ([4]; first compound 7.906 µM) | relative viability ([4]; first compound 25 µM) | relative viability ([4]; first compound 0.7906 µM)
1 | NCI-H1944 | 0.575 | 0.728 | 0.765 | 0.675 | 0.56 | 0.679 | 0.751 | 0.694 | 0.543 | 0.359 | 0.206 | 0.227 | 0.186 | 0.169 | 0.167 | 0.971 | 1.04 | 1.1 | 0.957 | 
2 | NCI-H2023 | 0.794 | 0.72 | 0.67 | 0.381 | 0.332 | 0.746 | 0.862 | 0.804 | 0.763 | 0.64 | 0.419 | 0.461 | 0.442 | 0.426 | 0.418 | 0.658 | 0.585 | 0.692 | 0.567 | 0.665
3 | NCI-H1755 | 0.345 | 0.713 | 0.275 | 0.299 | 0.388 | 0.396 | 0.519 | 0.497 | 0.407 | 0.358 | 0.617 | 0.595 | 0.683 | 0.63 | 0.678 | 0.829 | 0.851 | 0.931 | 1.02 | 0.892
4 | NCI-H2347 | 0.399 | 0.451 | 0.599 | 0.283 | 0.302 | 0.33 | 0.295 | 0.372 | 0.409 | 0.575 | 0.334 | 0.328 | 0.52 | 0.453 | 0.552 | 0.759 | 0.693 | 0.502 | 0.631 | 0.68
5 | ABC-1 | 0.633 | 0.617 | 0.367 | 0.254 | 0.248 | 0.746 | 0.879 | 0.73 | 0.534 | 0.341 | 0.263 | 0.21 | 0.269 | 0.257 | 0.206 | 0.993 | 0.866 | 0.918 | 0.664 | 1.09
6 | 201T | 1.1 | 1.02 | 1.05 | 1.06 | 1.07 | 1.05 | 1.11 | 1.08 | 1.09 | 1.14 | 0.463 | 0.494 | 0.454 | 0.463 | 0.568 | 0.936 | 0.995 | 1.16 | 1.22 | 1.09
7 | NCI-H1734 | 0.165 | 0.21 | 0.192 | 0.15 | 0.166 | 0.191 | 0.182 | 0.21 | 0.208 | 0.217 | 0.395 | 0.324 | 0.35 | 0.394 | 0.352 | 0.626 | 0.607 | 0.663 | 0.524 | 0.669
8 | NCI-H596 | 1.28 | 1.1 | 1.01 | 0.979 | 0.97 | 0.931 | 0.984 | 1.06 | 0.955 | 0.905 | 0.709 | 0.713 | 0.704 | 0.787 | 0.736 | 0.953 | 1.08 | 1.07 | 1.09 | 0.891
9 | NCI-H1650 | 0.248 | 0.198 | 0.196 | 0.191 | 0.183 | 0.183 | 0.176 | 0.175 | 0.18 | 0.179 | 0.39 | 0.456 | 0.435 | 0.423 | 0.295 | 0.928 | 0.952 | 1.11 | 1.16 | 0.959
10 | NCI-H1355 | 0.744 | 0.742 | 0.672 | 0.759 | 0.797 | 0.724 | 0.855 | 0.764 | 0.689 | 0.548 | 0.472 | 0.463 | 0.456 | 0.47 | 0.521 | 1.07 | 1.02 | 1.04 | 1.1 | 1.18
11 | NCI-H1915 | 0.905 | 0.831 | 0.949 | 0.775 | 0.716 | 0.776 |  | 0.783 | 0.676 | 0.77 | 0.353 |  | 0.364 | 0.356 | 0.386 | 0.863 | 0.87 | 0.809 | 1.03 | 
12 | BEN | 0.496 | 0.235 | 0.158 | 0.163 | 0.249 | 0.484 | 0.593 | 0.503 | 0.315 | 0.217 | 0.255 | 0.288 | 0.266 | 0.248 | 0.273 | 0.855 | 1.01 | 0.82 | 0.43 | 0.753
13 | NCI-H322M | 1.25 | 1.16 | 0.931 | 0.434 | 0.587 | 0.924 | 0.745 | 0.913 | 1.05 | 0.583 | 0.792 | 0.623 | 0.777 | 0.963 | 0.628 | 0.797 | 0.874 | 0.905 | 0.756 | 1.04
14 | SK-MES-1 | 0.728 | 0.681 | 0.525 | 0.485 | 0.37 | 0.869 | 0.915 | 0.88 | 0.919 | 0.7 | 0.678 | 0.852 | 0.693 | 0.746 | 0.771 | 1.03 | 1 | 1.04 | 1.19 | 1.14
15 | HOP-62 | 1.11 | 1.01 | 0.936 | 0.764 | 0.735 | 0.956 | 0.987 | 0.923 | 1.05 | 1.03 | 0.608 | 0.707 | 0.726 | 0.596 | 0.723 | 1.05 | 0.828 |  | 0.937 | 0.815
16 | NCI-H2405 | 0.735 | 0.49 | 0.219 | 0.217 | 0.214 | 0.624 | 0.586 | 0.664 | 0.702 | 0.649 | 0.395 | 0.392 | 0.392 | 0.346 | 0.37 | 0.835 | 0.878 | 0.816 | 0.793 | 0.584
17 | NCI-H1563 | 1.23 | 0.514 | 0.482 | 0.466 | 0.48 | 0.54 | 0.6 | 0.476 | 0.589 | 0.5 | 0.668 | 0.76 | 0.67 | 0.703 | 0.657 | 0.914 | 0.837 | 0.96 | 0.888 | 0.836
